Assay results from US4804663A, “3-piperidinyl-substituted 1,2-benzisoxazoles and 1,2-benzisothiazoles” (Janssen Pharmaceutica N.V., priority 1986, dated 1989).
Like-named read-outs stand apart in the source and are kept apart here.

Legend:
[1] = tested on: apomorphine-induced agitation and stereotypic chewing; experiment: combined test in rats: apomorphine (APO); assay type: in vivo, rat (adult male Wistar rats); settings: Rattus norvegicus, sc, 0.5 h, read-out: ED50 (APO)--rat
Experimental: (§1) The activity of the subject compounds as […] is evidenced by the experimental data obtained in at least one of two different test procedures, viz., the combined apomorphine-, tryptamine- and norepinephrine tests in rats and the apomorphine test in dogs.
(§2) The combined apomorphine (APO)-, tryptamine (TRY)- and norepinephrine (NOR) test in rats.
(§3) The experimental animals used in this test were adult male Wistar rats (weight 240±10 g). After an overnight fast, the animals were treated subcutaneously (1 ml/100 g) with an aqueous solution of the compound under investigation (time=zero) and put in isolated observation cages. Thirty minutes thereafter (time=30 minutes) 1.25 mg/kg of apomorphine hydrochloride (APO) was injected intravenously and the rats were observed over a 1 hour period for the presence or absence of the following apomorphine-induced phenomena; agitation and stereotypic chewing. At the end of this 1 hour period (time=90 minutes) the same animals were injected intravenously with 40 mg/kg of tryptamine (TRY) and the presence of the typical tryptamine-induced bilateral tonic seizures was noted. Two hours after pretreatment (time=120 minutes) finally, the same animals were challenged with 1.25 mg/kg intravenously of norephinephrine (NOR) and possible mortality was looked for up to 60 minutes later.
(§4) The table 1 gives the ED50 -value of a number of the compounds under consideration. As used herein, the ED50 -value represents the dose which protects 50% of the animals from apomorphine-, tryptamine- or norepinephrine-induced phenomena.

[2] = tested on: tryptamine-induced bilateral tonic seizures; experiment: combined test in rats: tryptamine (TRY); assay type: in vivo, rat (adult male Wistar rats); settings: Rattus norvegicus, sc, 1.5 h, read-out: ED50 (TRY)--rat
Experimental: as §1, §2, §3, §4

[3] = tested on: norepinephrine-induced mortality; experiment: combined test in rats: norepinephrine (NOR); assay type: in vivo, rat (adult male Wistar rats); settings: Rattus norvegicus, sc, 2 h; norepinephrine 1.25 mg/kg i.v. at 120 minutes; dose protecting 50% of animals
Experimental: as §1, §2, §3, §4

[4] = tested on: apomorphine-induced emesis; experiment: apomorphine test in dogs (APO-dog); assay type: in vivo, beagle dog; settings: Canis lupus familiaris, sc, read-out: ED50 (APO)--dog
From the text: as §1
The apomorphine test in dogs (APO-dog).
The method used is described by P. A. J. Janssen and C. J. E. Niemegeers in Arzneim.-Forsch. (Drug Res.), 9, 765-767 (1959). […]
The table 1 gives the ED50 -values of a number of the compounds under consideration. As used herein, the ED50 value represents the dose which protects 50% of the animals from emesis.

[5] = s.c., apomorphine 1.25 mg/kg i.v. 30 minutes after treatment, dose protecting 50% of animals
[6] = s.c., tryptamine 40 mg/kg i.v. at 90 minutes, dose protecting 50% of animals
[7] = duration 1 h, apomorphine 0.31 mg/kg s.c., dose protecting 50% from emesis
[8] = duration 4 h, apomorphine 0.31 mg/kg s.c., dose protecting 50% from emesis

Question: Which results are given for `Cc1nc2ccccn2c(=O)c1CCN1CCC(c2noc3cc(F)ccc23)CC1` [Compound 11, 3-[2-[4-(6-fluoro-1,2-benzisoxazol-3-yl)-1-piperidinyl]ethyl]-2-methyl-4H-pyrido[1,2-a]pyrimidin-4-one]?
Answer: ED50 [1, 5]: 0.02 mg/kg; ED50 [2, 6]: 0.01 mg/kg; ED50 [3]: 0.16 mg/kg; ED50 [4, 7]: 0.015 mg/kg; ED50 [4, 8]: 0.03 mg/kg

Question: `Cc1nc2sccn2c(=O)c1CCN1CCC(c2noc3cc(F)ccc23)CC1` [Compound 2, 6-[2-[4-(6-fluoro-1,2-benzisoxazol-3-yl)-1-piperidinyl]ethyl]-7-methyl-5H-thiazolo[3,2-a]pyrimidin-5-one] was tested. Which ED50 [1, 5] did it give?
Answer: Its ED50 is 0.02 mg/kg.

Question: And the ED50 [2, 6]?
Answer: Its ED50 is 0.005 mg/kg.

Question: What about the ED50 [3] of the same compound?
Answer: Its ED50 is 0.31 mg/kg.

Question: What about the ED50 [4, 7] of the same compound?
Answer: The ED50 was 0.004 mg/kg.

Question: What about the ED50 [4, 8] of the same compound?
Answer: The ED50 was 0.008 mg/kg.

Question: And the ED50 ([4]; duration 16 h, apomorphine 0.31 mg/kg s.c., dose protecting 50% from emesis)?
Answer: Its ED50 is 0.16 mg/kg.

Question: `Cc1nc2n(c(=O)c1CCN1CCC(c3noc4cc(F)ccc34)CC1)CCCS2` [Compound 15, 7-[2-[4-(6-fluoro-1,2-benzisoxazol-3-yl)-1-piperidinyl]ethyl]-3,4-dihydro-8-methyl-2H,6H-pyrimido[2,1-b][1,3]thiazin-6-one] was tested. Which ED50 [1, 5] did it give?
Answer: Its ED50 is 0.08 mg/kg.

Question: What about the ED50 [2, 6] of the same compound?
Answer: The ED50 was 0.01 mg/kg.

Question: And the ED50 [3]?
Answer: The ED50 was 0.31 mg/kg.

Question: And the ED50 [4, 7]?
Answer: Its ED50 is 0.015 mg/kg.

Question: What about the ED50 [4, 8] of the same compound?
Answer: Its ED50 is 0.06 mg/kg.

Question: How did the ED50 [1, 5] turn out when `Cc1nc2n(c(=O)c1CCN1CCC(c3noc4cc(F)ccc34)CC1)CCS2` [Compound 14, 6-[2-[4-(6-fluoro-1,2-benzisoxazol-3-yl)-1-piperidinyl]ethyl]-2,3-dihydro-7-methyl-5H-thiazolo[3,2-a]pyrimidin-5-one] was run?
Answer: The ED50 was 0.02 mg/kg.

Question: What about the ED50 [2, 6] of the same compound?
Answer: The ED50 was 0.005 mg/kg.

Question: What about the ED50 [3] of the same compound?
Answer: Its ED50 is 0.31 mg/kg.

Question: What about the ED50 [4, 7] of the same compound?
Answer: The ED50 was 0.004 mg/kg.

Question: And the ED50 [4, 8]?
Answer: The ED50 was 0.004 mg/kg.

Question: What does the source list for `Cc1nc2scc(C)n2c(=O)c1CCN1CCC(c2noc3cc(F)ccc23)CC1` [Compound 13, 6-[2-[4-(6-fluoro-1,2-benzisoxazol-3-yl)-1-piperidinyl]ethyl]-3,7-dimethyl-5H-thiazolo[3,2-a]pyrimidin-5-one]?
Answer: ED50 [1, 5]: 0.02 mg/kg; ED50 [2, 6]: 0.02 mg/kg; ED50 [3]: 0.08 mg/kg; ED50 [4, 7]: 0.015 mg/kg; ED50 [4, 8]: 0.06 mg/kg

Question: How did the ED50 [1] turn out when `Cc1nc2n(c(=O)c1CCN1CCC(c3noc4cc(F)ccc34)CC1)CCCC2` [Compound 1, 3-[2-[4-(6-fluoro-1,2-benzisoxazol-3-yl)-1-piperidinyl]ethyl]-6,7,8,9-tetrahydro-2-methyl-4H-pyrido[1,2-a]pyrimidin-4-one] was run?
Answer: Its ED50 is 0.08 mg/kg.

Question: And the ED50 [2]?
Answer: The ED50 was 0.08 mg/kg.

Question: And the ED50 [3]?
Answer: The ED50 was 0.16 mg/kg.

Question: And the ED50 ([4]; 1 h)?
Answer: The ED50 was 0.008 mg/kg.

Question: What about the ED50 ([4]; 2 h) of the same compound?
Answer: The ED50 was 0.005 mg/kg.

Question: What about the ED50 ([4]; 4 h) of the same compound?
Answer: The ED50 was 0.015 mg/kg.

Question: And the ED50 ([4]; 8 h)?
Answer: Its ED50 is 0.018 mg/kg.

Question: What about the ED50 ([4]; 16 h) of the same compound?
Answer: Its ED50 is 0.02 mg/kg.
